Here are results for 17 molecules from PubChem BioAssay (NCI).

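Briefly, cells in 96-well plates were exposed to five compound concentrations for 48 h, and endpoints were estimated by linear interpolation. Definition used: TGI = concentration required for complete inhibition of growth.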

Some test systems named below: COLO 205 colon; OVCAR-4 ovarian; OVCAR-3 ovarian; HS 578T breast; NCI-H522 lung; OVCAR-8 ovarian; OVCAR-5 ovarian; A549 NSCLC.
Holding throughout (assay): NCI-60 cell line screen, 48 h

Consider `CC1=CC(=O)/C(=C/n2c(=S)[nH]c3cc(C)ccc32)C(=O)O1`, for which the TGI in the assay with COLO 205 colon, in the assay on OVCAR-4 ovarian, in the assay on OVCAR-3 ovarian, in the assay on HS 578T breast, in the assay on NCI-H522 lung and in the assay with OVCAR-8 ovarian was > 100 µM in each case. Moreover, the TGI in the assay on OVCAR-5 ovarian and in the assay on A549 NSCLC was > 100 µM each time.

For `O=S(c1ccc(Cl)cc1)c1ccccc1C1=NCCN1` (stereo unspecified), the TGI in the assay on COLO 205 colon, with OVCAR-4 ovarian, in the assay with OVCAR-3 ovarian, with HS 578T breast, with NCI-H522 lung and with OVCAR-8 ovarian was > 100 µM in each case. Moreover, the TGI in the assay with OVCAR-5 ovarian and in the assay on A549 NSCLC was > 100 µM each time.

Regarding `CC1C(C#N)(C#N)C(C#N)=C(N)C1(C)[N+](=O)[O-]` (stereo unspecified), the TGI in the assay with COLO 205 colon, in the assay with OVCAR-4 ovarian, with OVCAR-3 ovarian, in the assay on HS 578T breast, with NCI-H522 lung and in the assay on OVCAR-8 ovarian was > 100 µM each time. Further, the TGI in the assay on OVCAR-5 ovarian and in the assay with A549 NSCLC was > 100 µM throughout.

For `CCN(CC)C1Oc2cc3c(cc2C(c2cccc(OC)c2O)C1C)OCO3` (stereo unspecified), the TGI is 13.6 µM with COLO 205 colon; > 100 µM with OVCAR-4 ovarian; 5.5 µM in the assay with OVCAR-3 ovarian; 18.7 µM in the assay on HS 578T breast; 7.3 µM in the assay on NCI-H522 lung; > 80.8 µM in the assay with OVCAR-8 ovarian. Moreover, the TGI with OVCAR-5 ovarian was determined as 48.5 µM; in the assay with A549 NSCLC, 24.6 µM.

For the molecule `O=S1(=O)OCCCOS(=O)(=O)C1(Br)Br`, the TGI with COLO 205 colon, with OVCAR-4 ovarian, in the assay on OVCAR-3 ovarian, in the assay with HS 578T breast, with NCI-H522 lung and with OVCAR-8 ovarian was > 100 µM each time. Further, the TGI with OVCAR-5 ovarian and with A549 NSCLC was > 100 µM throughout.

On to `CCC(=O)N1C(=O)C(CC)(CC)C(=O)N1C(=O)CC`, for which the TGI in the assay on COLO 205 colon, in the assay on OVCAR-4 ovarian, with OVCAR-3 ovarian, in the assay with HS 578T breast, with NCI-H522 lung and with OVCAR-8 ovarian was > 100 µM each time. Moreover, the TGI with OVCAR-5 ovarian and in the assay with A549 NSCLC was > 100 µM in each case.

As for `CC(C)=CCC[C@@H](C)C1=CC(=O)C(C)=C(O)C1=O`, the TGI in the assay on COLO 205 colon was 28.3 µM; in the assay with OVCAR-4 ovarian, 14.2 µM; in the assay with OVCAR-3 ovarian, 15.8 µM; in the assay on HS 578T breast, 21.1 µM; with NCI-H522 lung it was 2.78 µM; with OVCAR-8 ovarian, 4.83 µM. Besides, the TGI with OVCAR-5 ovarian is 27.5 µM; in the assay on A549 NSCLC, 25 µM.

`CS(=O)(=O)OCC1CCCCCCCCCCC12SCCCS2` (stereo unspecified): the TGI in the assay on COLO 205 colon, in the assay on OVCAR-4 ovarian, in the assay on OVCAR-3 ovarian, with HS 578T breast, in the assay on NCI-H522 lung and in the assay with OVCAR-8 ovarian was > 100 µM throughout. Moreover, the TGI in the assay on OVCAR-5 ovarian and with A549 NSCLC was > 100 µM in each case.

Turning to `Cc1ccc2c(=O)cc(Cc3csc4ccccc34)[nH]c2n1`, the TGI in the assay on COLO 205 colon is > 100 µM; in the assay with OVCAR-4 ovarian, 91.4 µM; in the assay with OVCAR-3 ovarian, > 100 µM; in the assay with HS 578T breast, 46.9 µM; in the assay on NCI-H522 lung it was 53.3 µM; in the assay with OVCAR-8 ovarian, > 100 µM. In addition, the TGI in the assay with OVCAR-5 ovarian and in the assay with A549 NSCLC was > 100 µM each time.

As for `COC1=CC(=O)c2nc3ccccc3c3ccnc1c23`, the TGI was 26.3 µM in the assay on COLO 205 colon; 18.8 µM with OVCAR-4 ovarian; > 21.4 µM in the assay on OVCAR-3 ovarian; > 47 µM in the assay with HS 578T breast; 20.5 µM in the assay on NCI-H522 lung; > 53.3 µM in the assay with OVCAR-8 ovarian. Besides, the results for the TGI in the assay on OVCAR-5 ovarian and in the assay with A549 NSCLC were 29.7 µM and 13.9 µM, respectively.

Take `CCN(CC)c1ccc2cc(C(N)=O)c(=Nc3ccc(F)cc3)oc2c1`: the TGI in the assay on COLO 205 colon, in the assay with OVCAR-4 ovarian, with OVCAR-3 ovarian, in the assay with HS 578T breast, in the assay with NCI-H522 lung and with OVCAR-8 ovarian was > 100 µM throughout. The TGI in the assay on OVCAR-5 ovarian and in the assay with A549 NSCLC was > 100 µM throughout.

Take `COC12C=CC(CC1)C(C)(C)C2OS(C)(=O)=O` (stereo unspecified): the TGI with COLO 205 colon, with OVCAR-4 ovarian, with OVCAR-3 ovarian, in the assay with HS 578T breast, in the assay on NCI-H522 lung and in the assay with OVCAR-8 ovarian was > 100 µM throughout. Moreover, the TGI in the assay with OVCAR-5 ovarian and with A549 NSCLC was > 100 µM each time.

Turning to `O=C(N[C@H]1CCC[C@H]1C(=O)Nc1ccc(C(F)(F)F)cc1)OCc1ccccc1`, the TGI with COLO 205 colon, in the assay on OVCAR-4 ovarian, in the assay on OVCAR-3 ovarian, in the assay on HS 578T breast, in the assay with NCI-H522 lung and in the assay with OVCAR-8 ovarian was > 100 µM each time. For the same molecule, the TGI in the assay with OVCAR-5 ovarian and in the assay with A549 NSCLC was > 100 µM in each case.

Turning to `O=C(/C=C/c1ccccc1)Oc1cccc(Br)c1`, the TGI with COLO 205 colon is > 100 µM; with OVCAR-4 ovarian, > 100 µM; in the assay with OVCAR-3 ovarian, > 100 µM; with HS 578T breast, > 100 µM; in the assay on NCI-H522 lung, 29.2 µM; in the assay on OVCAR-8 ovarian, > 100 µM. Also, the TGI with OVCAR-5 ovarian and in the assay with A549 NSCLC was > 100 µM each time.

In the case of `COc1cc([C@@H]2c3cc4c(cc3[C@@H](c3c(O)cc(O)c5c3O[C@H](c3ccc(O)c(O)c3)[C@H](OC(=O)c3cc(O)c(O)c(O)c3)C5)[C@H]3COC(=O)[C@H]23)OCO4)cc(OC)c1O`, the TGI with COLO 205 colon was 84.1 µM; with OVCAR-4 ovarian, > 100 µM; with OVCAR-3 ovarian it was > 100 µM; in the assay on HS 578T breast, > 100 µM; in the assay on NCI-H522 lung it was > 100 µM; in the assay on OVCAR-8 ovarian, > 100 µM. Moreover, the TGI in the assay with OVCAR-5 ovarian was > 100 µM; in the assay with A549 NSCLC, 99.2 µM.

Take `COc1cc(S(=O)(=O)Nc2ccc(-c3csc(N4C(=O)C(C)SC4c4ccccc4)n3)cc2)ccc1Cl` (stereo unspecified): the TGI in the assay with COLO 205 colon, in the assay with OVCAR-4 ovarian, with OVCAR-3 ovarian, with HS 578T breast, in the assay with NCI-H522 lung and with OVCAR-8 ovarian was > 100 µM throughout. Besides, the TGI with OVCAR-5 ovarian and with A549 NSCLC was > 100 µM in each case.

Take `Cc1cc2oc3c(ccc(=O)n3C)c(=O)c2c(C)c1Cl`: the TGI was > 100 µM in the assay on COLO 205 colon; > 100 µM with OVCAR-4 ovarian; > 100 µM in the assay on OVCAR-3 ovarian; 93 µM in the assay with HS 578T breast; > 100 µM with NCI-H522 lung; > 100 µM in the assay with OVCAR-8 ovarian. Besides, the TGI with OVCAR-5 ovarian and in the assay with A549 NSCLC was > 100 µM in each case.
